We go through 3 sequences from patent US8178506B2, “Oligomeric compounds and compositions for use in modulation of small non-coding RNAs” (Regulus Therapeutics Inc., priority 2003, dated 2012).

Entries after “also recorded” stand apart in the source; their conditions may differ. In the oligonucleotide strings, read from the 5' end, every base follows the letter of its sugar. An asterisk marks phosphorothioate; unmarked linkages are phosphodiester. Other units and linkages are bracketed, terminal groups are in braces. A string of capitals states the bases alone. e = 2'-O-(2-methoxyethyl) (MOE); [5mC] = 5-methylcytosine; d = 2'-deoxy (DNA)

For series [1], the system named is mir-23b miRNA. Put plainly: Northern blot of mir-23b in kidney of ob/ob mice. As to conditions: twice weekly at 25 mg/kg, saline = 100%. The class given is in vivo, mouse. As to the method:
In addition, Northern blot analyses were performed to quantitate the expression of mir-23b in kidney samples of ob/ob mice treated with oligomeric compounds of the present invention. To detect the mir-23b target, a target-specific DNA oligonucleotide probe with the sequence […] (SEQ ID NO: 307) was synthesized by IDT (Coralville, Iowa). The oligo probes were 5′ end-labeled with T4 polynucleotide kinase with (γ-^32P) ATP (Promega). The mir-23b specific DNA oligonucleotide probe was used to detect expression levels of the mir-23b miRNA in ob/ob mice treated (twice weekly at 25 mg/kg) with ISIS Numbers 327889, the uniform 2′-MOE oligomeric compound, or ISIS Number 340925, the 5-10-8 gapmer compound, both targeted to mir-23b, versus saline treated animals or animals treated with a control oligomeric compound, ISIS Number 116847 ([…]; SEQ ID NO: 844), a uniform 5-10-52′-MOE gapmer targeting an unrelated gene, PTEN. Expression levels were normalized against the U6 RNA and the expression levels of saline treated animals were set at 100%. […] In kidney samples from mice treated with the gapmer oligomeric compound targeting mir-23b, ISIS Number 340925, a 41% reduction in in vivo expression levels of the mir-23b miRNA was observed.

Series [2] deals with preadipocytes / differentiating adipocytes. Nature of the series: Adipocyte differentiation assay, markers taken together. The format is cell-based, human. Conditions: preadipocytes, 250 nM, day nine post-transfection, relative to ISIS-29848.
Series [3] has as its system mir-23b miRNA. Put plainly: pGL3-mir-23b sensor luciferase assay in HeLa cells. Conditions: HeLa, 1.3-, 5- or 20 nM. The class given is cell-based, human. From the text: In order to assess the ability of miRNAs to bind predicted miRNA binding sites and regulate the expression of the luciferase reporter, in some embodiments, expression systems based on the pGL3-Control (Promega Corp., Madison Wis.) reporter vector and comprising either a mir-15a, mir-21, or a mir-23b miRNA binding site were developed and used in transient transfections of HeLa cells to determine whether the endogenous mir-15a, mir-21, or mir-23b miRNAs, respectively, could repress luciferase reporter gene expression.
The pGL3-mir-23b sensor plasmid was created by cloning the sequence ([…]; SEQ ID NO: 307), representing a sequence complementary to the mir-23b miRNA, into the Xba site of the pGL3-Control plasmid, placing the potential miRNA-binding site in the 3′UTR of the luciferase reporter. This reporter plasmid was used to transfect HeLa cells and it was observed that the endogenous mir-23b miRNA was able to inhibit luciferase expression from the pGL3-mir-23b sensor plasmid. Thus, to further evaluate the ability of the mir-23b miRNA to bind this target site encoded by the pGL3-mir-23b sensor plasmid, and to assess the ability of oligomeric compounds to interfere with mir-23b-mediated silencing, pGL3-mir-23b sensor-expressing HeLa cells were treated with varying concentrations (1.3-, 5- or 20 nM) of the following oligomeric compounds: ISIS Number 327889 (SEQ ID NO: 307), a phosphorothioate uniform 2′-MOE oligomeric compound, and ISIS Number 340925 (SEQ ID NO: 307), a 2′-MOE 5-10-8 gapmer oligomeric compound, both targeting mir-23b. The uniform 2′-MOE phosphorothioate oligomeric compound ISIS Number 327924 (SEQ ID NO: 342) targeting an unrelated miRNA (mir-129-2) was used as a negative control. The data are the average of three trials, and are presented in Table 43 as relative luciferase activity (normalized to pRL-CMV luciferase plasmid only, not treated with oligomeric compound).

The subject of a further series is DIO mice. Nature of the series: Diet-induced obesity (DIO) mice. The class given is in vivo. Conditions: 25 mg/kg s.c. twice weekly. As to the method:
As described, supra, the C57BL/6 mouse strain is reported to be susceptible to hyperlipidemia-induced atherosclerotic plaque formation, and when these mice are fed a high-fat diet, they develop diet-induced obesity (DIO). Accordingly, the DIO mouse model is useful for the investigation of obesity and development of agents designed to treat these conditions. In one embodiment of the present invention, oligomeric compounds targeting miRNAs were tested in the DIO model. Normal C57/BL6 male mice were fed a high fat diet (40% fat, 41% carbohydrate, 18% protein) for 12 weeks before the study began. DIO mice were then randomized by weight and insulin values. Initial body fat composition was determined by Dual X-ray Absorptiometry (DEXA) Scan. DIO mice were then subcutaneously injected with oligomeric compounds of the invention at a dose of 25 mg/kg, twice weekly. DIO mice were treated with oligomeric compounds ISIS Numbers 327901 and 340927 targeting mir-143, ISIS Numbers 327892 and 340926 targeting mir-131/mir-9, ISIS Numbers 327878 and ISIS Number 345349 targeting mir-203, and ISIS Numbers 327889 and 340925, targeting mir-23b. […] DEXA scans were also performed at weeks 0, 3 and 5 after treatment with the oligomeric compounds to assess the fat mass to lean mass ratio. The effects of target inhibition on levels of plasma glucose and insulin, liver transaminases, cholesterol and triglycerides, were also assessed weekly by tail bleed, and after the treatment period, mice were sacrificed and liver and kidney heart, as well as white adipose tissue (WAT) tissues collected. The mRNA expression levels of the Glut4, aP2, HSL and PPARγ marker genes are also assessed. […] Furthermore, some improvement in body composition (a reduction in body weight and fat mass) was observed.

The test system of the next series is TLR4. Nature of the series: TLR4 mRNA in primary murine macrophages. The class given is cell-based, mouse. As to conditions: LPS-stimulated and LPS- and IFN-gamma-stimulated macrophages. As to the method:
Following the 24 hour treatment with LPS, the cells were lysed and RNA was isolated using the RNEASY 96™ kit, as described herein. mRNA expression was quantitated by real-time PCR, performed as described herein, using primer and probe sets to amplify and quantitate TLR4, IL-12 and IL-6 mRNA expression levels. Primers and probe for TLR4, designed using GenBank Accession number NM_021297.1, were: forward primer, 5′-[…]-3′ (SEQ ID NO: 2172), reverse primer, 5′-[…]-3′ (SEQ ID NO: 2173), probe 5′-FAM-[…]-TAMRA-3′ (SEQ ID NO: 2174). Primers and probe for IL-12, designed using GenBank Accession number M86671.1, were: forward primer, 5′-[…]-3′ (SEQ ID NO: 2175), reverse primer, 5′-[…]-3′ (SEQ ID NO: 2176), probe 5′-FAM-[…]-TAMRA-3′ (SEQ ID NO: 2177). Primers and probe for IL-6, designed using GenBank Accession number X54542.1, were: forward primer, 5′-[…]-3′ (SEQ ID NO: 2178), reverse primer, 5′-[…]-3′ (SEQ ID NO: 2179), probe 5′-FAM-[…]-TAMRA-3′ (SEQ ID NO: 2180). The amount of total RNA in each sample was determined using a Ribogreen Assay (Molecular Probes, Eugene, Oreg.), and expression levels of TLR4, IL-12 and IL-6 were normalized to total RNA.
TLR4 is the primary macrophage receptor for LPS. […]

A further series concerns IL-6 mRNA. Put plainly: IL-6 mRNA in LPS-activated primary murine macrophages. Conditions: IFN-gamma-stimulated and unstimulated cells, 75-600 nM. The format is cell-based, mouse. As to the method:
To investigate the role of miRNAs in the immune response, oligomeric compounds of the present invention targeting miRNAs were tested for their effects upon lipopolysaccharide (LPS)-activated primary murine macrophages. Macrophages participate in the immune response, for example, in the recognition and phagocytosis of microorganisms, including bacteria. Interferon-gamma (IFN-gamma) released by helper T cells is one type of signal required for macrophage activation, and LPS can serve as an additional stimulus. LPS is a component of the gram-negative bacterial cell wall and acts as an agonist for toll-like receptor 4 (TLR4), the primary LPS receptor expressed by macrophages. The proinflammatory cytokines interleukin-12 (IL-12) and interleukin-6 (IL-6) are induced by LPS treatment of macrophages, thus the expression of the mRNAs encoding these cytokines was used to evaluate the response of macrophages to LPS following treatment with oligomeric compounds targeting miRNAs.
Macrophages were isolated as follows. Female C57B1/6 mice (Charles River Laboratories, Wilmington, Mass.) were injected intraperitoneally with 1 ml 3% thioglycollate broth (Sigma-Aldrich, St. Louis, Mo.), and peritoneal macrophage cells were isolated by peritoneal lavage 4 days later. The cells were plated in 96-well plates at 40,000 cells/well for one hour in serum-free RPMI adjusted to contain 10 mM HEPES (Invitrogen Life Technologies, Carlsbad, Calif.), allowed to adhere, then non-adherent cells were washed away and the media was replaced with RPMI containing 10 mM HEPES, 10% FBS and penicillin/streptomycin (“complete” RPMI; Invitrogen Life Technologies, Carlsbad, Calif.).
Oligomeric compounds were introduced into the cells using the non-liposomal transfection reagent FuGENE 6 Transfection Reagent (Roche Diagnostics Corp., Indianapolis, Ind.). Oligomeric compound was mixed with FuGENE 6 in 1 mL of serum-free RPMI to achieve a concentration of 10 μL FuGENE per 1000 nM oligomeric compound. The oligomeric compound/FuGENE complex was allowed to form at room temperature for 20 minutes. This mixture was diluted to the desired concentration of oligomeric compound by the addition of the appropriate volume of complete RPMI. The final ratio of FuGENE 6 to oligomeric compound was 1 μL of FuGENE 6 per 100 nM oligomeric compound. A volume of 100 μL of oligomeric compound/FuGENE/RPMI was added to each well of the 96-well plate in which the macrophages were cultured. Each oligomeric compound treatment was repeated in triplicate.
Following oligomeric compound treatment, cells were stimultated with LPS. Cells were cultured in the presence of the transfection complex for approximately 24 to 28 hours at 37° C. and 5% CO2, after which the medium containing the transfection complex was removed from the cells, and complete RPMI containing 100 ng/mL LPS (Sigma-Aldrich Corp., St. Louis, Mo.) was added to the cells for a period of approximately 24 hours. Control samples included (1) cells receiving no oligomeric compound, stimulated with LPS and (2) cells receiving neither oligomeric compound nor LPS treatment.
In another embodiment, following oligomeric compound treatment, cells were first activated by IFN-gamma, to amplify the response to LPS. Cells were cultured in the presence of the transfection complex for approximately 24 hours at 37° C. and 5% CO2, at which point the medium containing the transfection complex was removed from the cells, and complete RPMI containing 100 ng/mL recombinant mouse IFN-gamma (R&D Systems, Minneapolis, Minn.) was added to the cells. After the 4 hour treatment with INF-gamma, cells were treated with 100 ng/mL LPS for approximately 24 hours. Control samples included (1) cells receiving no oligomeric compound, stimulated with LPS and (2) cells receiving neither oligomeric compound nor LPS treatment. […]

Another series deals with IL-12 mRNA. Nature of the series: IL-12 mRNA in LPS-activated primary murine macrophages. The class given is cell-based, mouse. Conditions: LPS-stimulated primary murine macrophages.
A further series relates to mir-24-2 pri-miRNA. Put plainly: mir-24-2 pri-miRNA expression in HeLa cells. The format is cell-based, human. Conditions: 100 nM. As to the method:
The expression levels of mir-24-2, let-7i , and let-7d were assessed in HeLa or T-24 cells treated with various uniform 2′-MOE oligomeric compounds targeting mature miRNAs. For example, using the transfection methods previously described, HeLa cells were treated with 100 nM of the oligomeric compound ISIS Number 327945 (SEQ ID NO: 363) targeting the mir-24-2 mature miRNA. Total RNA was isolated and expression levels of the mir-24-2 pri-miRNA were analyzed by real-time quantitative RT-PCR using a primer/probe set specific for the mir-24-2 pri-miRNA molecule [forward primer=ISIS 359358 (CCCTGGGCTCTGCCT; herein incorporated as SEQ ID NO.: 908), reverse primer-ISIS 359359 ([…]; herein incorporated as SEQ ID NO.: 909), and probe=ISIS 359360 (CGTGCCTACTGAGC; herein incorporated as SEQ ID NO.: 910)].

On to “GTGGTAATCCCTGGCAATGTGAT [ISIS 327889] (chemistry not given here) [uniform 2′-MOE PS; targets mir-23b]”, for which, in the series on mir-23b miRNA [1], the “decrease in in vivo expression levels of the mir-23b miRNA” value is roughly 64%. The “expression levels of markers of adipocyte differentiation (TG, leptin, aP2, HSL, Glut4, PPARγ)” value in series [2] is reported as “significantly reduce the expression levels of 5 of 6 markers of adipocyte differentiation; also recorded: reduce the expression of several hallmark genes of adipocyte differentiation”. In the series with mir-23b miRNA [3], the “expression of the luciferase reporter, pGL3-mir-23b sensor” value was “de-repressed the expression of the luciferase reporter”. For the same sequence, in the series with DIO mice, the “liver toxicity (plasma transaminase levels, weekly)” value is listed as “did not appear to cause liver toxicity”.
On to “CCACATTGAGTTTCTTTAAG (e[5mC]*e[5mC]*eA*e[5mC]*eA*dT*dT*dG*dA*dG*dT*dT*dT*d[5mC]*dT*eT*eT*eA*eA*eG) [ISIS 229927, 5-10-5 2′-MOE gapmer PS targeting mouse TLR4 mRNA, positive control, reference compound]”, for which the “expression of TLR4” value in the series on TLR4 is given as “reduced the expression of TLR4 in a dose-dependent manner”. The IL-6 expression entry with IL-6 mRNA is “some reduction in IL-6 expression”. For the same sequence, the “IL-12 mRNA expression” value in the series with IL-12 mRNA was “dose-dependent reduction in IL-12”.
As to “CTGTTCCTGCTGAACTGAGCCA (anti-miR; chemistry not fully specified) [ISIS 327945, uniform 2′-MOE PS; targets mir-24-2]”, the “increase in expression levels of the mir-24-2 pri-miRNA molecule” value in the series with mir-24-2 pri-miRNA was “approximately 35 fold”.
